The target in the assay is MAPKAPK2 (Homo sapiens, UniProt P49137). In words: HTS ATP-utilizing enzyme assay, off-chip mobility-shift (Caliper HTS 250). The following applies: test compound 10 μM, kinase listed = active (greater than six-sigma from the mean activity of inactive compounds). It is filed as biochemical. The source says: The following procedures describe the reagent and plate preparation for a HTS of an ATP-utilizing enzyme, such as a protein kinase, run in an off-chip mobility-shift assay format. The following provides an HTS protocol for running a protein kinase HTS screen on a Caliper HTS 250 microfluidics system. The following parameters are dependent on the protein kinase used and can be determined by one skilled in the art as part of a typical assay development process. For example, the peptide substrate used can be identified from the current literature, by screening a peptide library of potential protein kinase substrates, or by other applicable means accepted in the field.
The following table provides typical screen assay parameters appropriate for a Caliper HTS 250 microfluidics system.
The reagents and buffers listed in the following table are generally applicable for developing and running an HTS screen on a human protein kinase using the Caliper HTS 250 system.
The following reagents were prepared using the previously described buffers.
A 2× Master Buffer solution was prepared by combining 200 mL of 1 M HEPES, pH 7.5, 2 mL of 10% Triton X-100, 20 mL of 10% BSA, and 778 mL of H2O.
A TCB Buffer solution was prepared by combining 125 mL of 2× Master Buffer, 10 mL of 0.5 M EDTA, 6.25 mL of 4% coating reagent, 1.01 mL of 100% DMSO, and 107.74 mL H2O.
Assays to determine the kinase inhibitory activity of compounds of the present disclosure were performed using a Caliper HTS 250 microfluidics device, Greiner U-bottom assay plates, a Multidrop for transfer of reagents, and Biomek FX (AMNCBM03) software. Initially, 2.4 μL of a 1 mM solution of a test compound in 100% DMSO was added to a well of the Greiner U-bottom plate. A single Greiner U-bottom plate having 24×16 wells could include multiple test compounds. […] Using the Biomek FX, 10 μL of 0.5 M EDTA was added by the span-8 to wells, indicated as 100% Control and 2.4 μL of 100% DMSO was added by the span-8 to wells, indicated as 0% Control. […] The total reaction volume in each well was 25 μL, and the concentration of the test compound was 10 μM. The assay plate was incubated for 2.5 hrs at 20° C. to 22° C. […] The inhibition of the ATP-utilizing enzyme, such as a particular protein kinase, was determined by measuring the ratio of the peptide substrate to phosphorylated product for each well of the assay plate using the Caliper HTS 250 system.
The use of six-sigma statistical limits represents a conservative method for declaring potential hits among targets. The six-sigma activity, as well as the mean population activity, can be different for each target enzyme.

Each structure is given as a SMILES string.

Chain of MAPKAPK2 (P49137 whole entry): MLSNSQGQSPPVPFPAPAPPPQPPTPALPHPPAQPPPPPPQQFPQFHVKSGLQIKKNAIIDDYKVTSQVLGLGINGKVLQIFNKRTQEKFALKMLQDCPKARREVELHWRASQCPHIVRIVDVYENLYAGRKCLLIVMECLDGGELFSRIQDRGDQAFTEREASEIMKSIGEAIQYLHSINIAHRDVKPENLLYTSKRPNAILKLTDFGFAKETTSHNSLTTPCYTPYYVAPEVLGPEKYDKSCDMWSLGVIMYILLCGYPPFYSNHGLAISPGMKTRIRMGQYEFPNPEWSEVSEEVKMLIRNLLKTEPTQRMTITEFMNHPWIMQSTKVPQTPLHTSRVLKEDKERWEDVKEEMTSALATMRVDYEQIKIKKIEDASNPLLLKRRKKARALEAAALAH

For the compound `Cc1cc(-c2ccc3nccc(Nc4ccc(N5CCC(N(C)C)C5)cc4)c3c2)ccc1Cl` (centres unmarked) [6-(4-chloro-3-methylphenyl)-N-(4-(3-(dimethylamino)pyrrolidin-1-yl)phenyl)quinolin-4-amine], the Activity result is “MAPKAPK2”. With `CC(=O)N1CCc2cc(-c3ccc4nccc(Nc5ccc(N6CCC(N(C)C)C6)cc5)c4c3)ccc21` (centres unmarked) [1-(5-(4-(4-(3-(dimethylamino)pyrrolidin-1-yl)phenylamino)quinolin-6-yl)indolin-1-yl)ethanone] the entry was “MAPKAPK2”; with `CN1CCN(c2ccc(Nc3ccnc4ccc(-c5cncnc5)cc34)cc2)CC1` [N-(4-(4-methylpiperazin-1-yl)phenyl)-6-(pyrimidin-5-yl)quinolin-4-amine], “MAPKAPK2”.

With `CN(C)[C@H]1CCN(c2ccc(Nc3ccnc4ccc(-c5ccc(Cl)cc5)cc34)cc2)C1` [(S)-6-(4-chlorophenyl)-N-(4-(3-(dimethylamino)pyrrolidin-1-yl)phenyl)quinolin-4-amine], the Activity entry was “MAPKAPK2”. `COCCN1CCN(c2ccc(Nc3ccnc4ccc(-c5ccc(C#N)cc5)cc34)cc2)CC1` [4-(4-(4-(4-(2-methoxyethyl)piperazin-1-yl)phenylamino)quinolin-6-yl)benzonitrile]: the Activity result is recorded as “MAPKAPK2”. The value for `CC(C)c1ccc(-c2ccc3nccc(Nc4ccc(N5CCC(N(C)C)C5)cc4)c3c2)cc1` (centres unmarked) [N-(4-(3-(dimethylamino)pyrrolidin-1-yl)phenyl)-6-(4-isopropylphenyl)quinolin-4-amine] was “MAPKAPK2”; that for `N#Cc1ccc(-c2ccc3nccc(Nc4ccc(N5CCN(C6CCCC6)CC5)cc4)c3c2)cc1` [4-(4-(4-(4-cyclopentylpiperazin-1-yl)phenylamino)quinolin-6-yl)benzonitrile] was “MAPKAPK2”. With `CN(C)[C@@H]1CCN(c2ccc(Nc3ccnc4ccc(-c5ccc(C#N)cc5)cc34)cc2)C1` [(R)-4-(4-(4-(3-(dimethylamino)pyrrolidin-1-yl)phenylamino)quinolin-6-yl)benzonitrile] the entry was “MAPKAPK2”. The value for `CN(Cc1ccccc1)C1CCN(c2ccc(Nc3ccnc4ccc(-c5ccc(C#N)cc5)cc34)cc2)C1` (centres unmarked) [4-(4-(4-(3-(benzyl(methyl)amino)pyrrolidin-1-yl)phenylamino)quinolin-6-yl)benzonitrile] was “MAPKAPK2”. For the compound `CCN(CC)C1CCN(c2ccc(Nc3ccnc4ccc(-c5ccc6ccccc6c5)cc34)cc2)C1` (centres unmarked) [N-(4-(3-(diethylamino)pyrrolidin-1-yl)phenyl)-6-(naphthalen-2-yl)quinolin-4-amine], the Activity result is recorded as “MAPKAPK2”.

Regarding `COc1ccc(-c2ccc3nccc(Nc4ccc(N5CCC(N(C)C)C5)cc4)c3c2)cc1` (centres unmarked) [N-(4-(3-(dimethylamino)pyrrolidin-1-yl)phenyl)-6-(4-methoxyphenyl)quinolin-4-amine], the Activity entry is given as “MAPKAPK2”. With `COc1ccc(-c2ccc3nccc(Nc4ccc(N5CCN(C6CCCC6)CC5)cc4)c3c2)cc1` [N-(4-(4-cyclopentylpiperazin-1-yl)phenyl)-6-(4-methoxyphenyl)quinolin-4-amine] the entry was “MAPKAPK2”. The value for `CC1CCN(c2ccc(Nc3ccnc4ccc(-c5ccc(C#N)cc5)cc34)cc2)CC1` [4-(4-(4-(4-methylpiperidin-1-yl)phenylamino)quinolin-6-yl)benzonitrile] was “MAPKAPK2”.

As for `CN(C)C1CCN(c2ccc(Nc3ccnc4ccc(-c5cccc(Cl)c5)cc34)cc2)C1` (centres unmarked) [6-(3-chlorophenyl)-N-(4-(3-(dimethylamino)pyrrolidin-1-yl)phenyl)quinolin-4-amine], the Activity entry was “MAPKAPK2”. With `CCCN1CCN(c2ccc(Nc3ccnc4ccc(-c5ccc(OC)cc5)cc34)cc2)CC1` [6-(4-methoxyphenyl)-N-(4-(4-propylpiperazin-1-yl)phenyl)quinolin-4-amine] the entry was “MAPKAPK2”.

On to `N#Cc1ccc(-c2ccc3nccc(Nc4ccc(N5CCN(CCCO)CC5)cc4)c3c2)cc1` [4-(4-(4-(4-(3-hydroxypropyl)piperazin-1-yl)phenylamino)quinolin-6-yl)benzonitrile], for which the Activity entry is recorded as “MAPKAPK2”.

For the compound `CCN1CCN(c2ccc(Nc3ccnc4ccc(-c5ccc(OC)cc5)cc34)cc2)CC1` [N-(4-(4-ethylpiperazin-1-yl)phenyl)-6-(4-methoxyphenyl)quinolin-4-amine], the Activity result was “MAPKAPK2”. Regarding `COc1ccc(-c2ccc3nccc(Nc4ccc(N5CCN(CCO)CC5)cc4)c3c2)cc1` [2-(4-(4-(6-(4-methoxyphenyl)quinolin-4-ylamino)phenyl)piperazin-1-yl)ethanol], the Activity result is reported as “MAPKAPK2”. The value for `CN1CCC(N(C)c2ccc(Nc3ccnc4ccc(-c5cnc6ccccc6c5)cc34)cc2)C1` (centres unmarked) [N1-(3,6′-biquinolin-4′-yl)-N4-methyl-N4-(1-methylpyrrolidin-3-yl)benzene-1,4-diamine] was “MAPKAPK2”; that for `Cc1cccc(-c2ccc3nccc(Nc4ccc(N5CCC(N(C)C)C5)cc4)c3c2)c1` (centres unmarked) [N-(4-(3-(dimethylamino)pyrrolidin-1-yl)phenyl)-6-m-tolylquinolin-4-amine] was “MAPKAPK2”; that for `COc1ccc(-c2ccc3nccc(Nc4ccc(N5CCN(CCC#N)CC5)cc4)c3c2)cc1` [3-(4-(4-(6-(4-methoxyphenyl)quinolin-4-ylamino)phenyl)piperazin-1-yl)propanenitrile] was “MAPKAPK2”. The value for `Cc1cc(-c2ccc3nccc(Nc4ccc(N5CCC(N(C)C)C5)cc4)c3c2)ccc1F` (centres unmarked) [N-(4-(3-(dimethylamino)pyrrolidin-1-yl)phenyl)-6-(4-fluoro-3-methylphenyl)quinolin-4-amine] was “MAPKAPK2”. The value for `CN(C)C1CCN(c2ccc(Nc3ccnc4ccc(-c5ccc6[nH]ccc6c5)cc34)cc2)C1` (centres unmarked) [N-(4-(3-(dimethylamino)pyrrolidin-1-yl)phenyl)-6-(1H-indol-5-yl)quinolin-4-amine] was “MAPKAPK2”. With `CCC(CC)N1CCN(c2ccc(Nc3ccnc4ccc(-c5ccc(C#N)cc5)cc34)cc2)CC1` [4-(4-(4-(4-(pentan-3-yl)piperazin-1-yl)phenylamino)quinolin-6-yl)benzonitrile], the Activity entry is “MAPKAPK2”. Turning to `CN1CCN(c2ccc(Nc3ccnc4ccc(-c5ccc(C#N)cc5)cc34)nn2)CC1` [4-(4-(6-(4-methylpiperazin-1-yl)pyridazin-3-ylamino)quinolin-6-yl)benzonitrile], the Activity entry is on record as “MAPKAPK2”. Take `Cc1ccc(-c2ccc3nccc(Nc4ccc(N5CCC(N(C)C)C5)cc4)c3c2)nc1` (centres unmarked) [N-(4-(3-(dimethylamino)pyrrolidin-1-yl)phenyl)-6-(5-methylpyridin-2-yl)quinolin-4-amine]: the Activity entry is given as “MAPKAPK2”. With `CN(C)C1CCN(c2ccc(Nc3ccnc4ccc(-c5ccc(Cl)c(F)c5)cc34)cc2)C1` (centres unmarked) [6-(4-chloro-3-fluorophenyl)-N-(4-(3-(dimethylamino)pyrrolidin-1-yl)phenyl)quinolin-4-amine] the entry was “MAPKAPK2”; with `CN1CCN(c2ccc(Nc3ccnc4ccc(-c5ccccc5C(N)=O)cc34)cc2)CC1` [2-(4-(4-(4-methylpiperazin-1-yl)phenylamino)quinolin-6-yl)benzamide], “MAPKAPK2”; with `C=CCN1CCN(c2ccc(Nc3ccnc4ccc(-c5ccc(C#N)cc5)cc34)cc2)CC1` [4-(4-(4-(4-allylpiperazin-1-yl)phenylamino)quinolin-6-yl)benzonitrile], “MAPKAPK2”.
